Results from patent US8952024B2, “Herbicidal pyrimidone derivatives” (E I du Pont de Nemours and Company, priority 2009, dated 2015).

Legend:
Type in all cases: in vivo
[1] = system: morningglory (Ipomoea spp.); experiment: Test A pre-/postemergence plant response
Method in brief: (§1)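 Injury scores (0, no effect; 100, complete control) come from visual comparison with untreated controls roughly ten days post-treatment. Test chemicals in a surfactant-containing non-phytotoxic solvent were applied as a directed soil spray preemergence and to one- to two-leaf seedlings postemergence.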

[2] = system: large crabgrass (Digitaria sanguinalis); experiment: Test A pre-/postemergence plant response
Method in brief: as §1

[3] = system: velvetleaf (Abutilon theophrasti); experiment: Test A pre-/postemergence plant response
Method in brief: as §1

[4] = system: barnyardgrass (Echinochloa crus-galli); experiment: Test A pre-/postemergence plant response
Method in brief: as §1

[5] = system: pigweed (Amaranthus retroflexus); experiment: Test A pre-/postemergence plant response
Method in brief: as §1

[6] = system: giant foxtail (Setaria faberii); experiment: Test A pre-/postemergence plant response
Method in brief: as §1

[7] = system: corn (Zea mays); experiment: Test A pre-/postemergence plant response
Method in brief: as §1

[8] = system: wheat (Triticum aestivum); experiment: Test A pre-/postemergence plant response
Method in brief: as §1

[9] = system: windgrass (Apera spica-venti); experiment: Test B postemergence plant response; conditions: Postemergence; for Windgrass plant response rating: 250 g ai/ha, scale 0 to 100
Excerpt: (§2) At the same time, plants selected from these crop and weed species and also winter barley (Hordeum vulgare), canarygrass (Phalaris minor), chickweed (Stellaria media) and windgrass (Apera spica-venti) were planted in pots containing Redi-Earth® planting medium (Scotts Company, 14111 Scottslawn Road, Marysville, Ohio 43041) comprising spaghnum peat moss, vermiculite, wetting agent and starter nutrients and treated with postemergence applications of some of the test chemicals formulated in the same manner. Plants ranged in height from 2 to 18 cm (1- to 4-leaf stage) for postemergence treatments.
(§3) Treated plants and controls were maintained in a greenhouse for 13 to 15 days, after which time all treated plants were visually evaluated and compared to controls. Plant response ratings, summarized in Table B, are based on a scale of 0 to 100 where 0 is no effect and 100 is complete control. A dash (-) response means no test result.

[10] = system: winter barley (Hordeum vulgare); experiment: Test B postemergence plant response; conditions: Postemergence; for Barley plant response rating: 250 g ai/ha, scale 0 to 100
Excerpt: as §2, §3

[11] = system: canarygrass (Phalaris minor); experiment: Test B postemergence plant response; conditions: Postemergence; for Canarygrass plant response rating: 250 g ai/ha, scale 0 to 100
Excerpt: as §2, §3

[12] = system: chickweed (Stellaria media); experiment: Test B postemergence plant response; conditions: Postemergence; for Chickweed plant response rating: 250 g ai/ha, scale 0 to 100
Excerpt: as §2, §3

[13] = Postemergence, 125 g ai/ha, visual injury, 0 to 100 scale (0 no effect, 100 complete control), approx. ten days
[14] = Postemergence, 500 g ai/ha, 0 to 100 scale, 0 = no effect, 100 = complete control, approx. ten days
[15] = Preemergence, 125 g ai/ha, 0 to 100 scale, 0 = no effect, 100 = complete control
[16] = Preemergence, 500 g ai/ha, visual injury, 0 to 100 scale (0 no effect, 100 complete control), approx. ten days
[17] = 31 g ai/ha, scale 0 to 100 (0 no effect, 100 complete control)
[18] = 62 g ai/ha, scale 0 (no effect) to 100 (complete control), 13 to 15 days
[19] = 125 g ai/ha, visual rating after 13 to 15 days, scale 0 (no effect) to 100 (complete control)
[20] = 125 g ai/ha, scale 0 to 100 (0 no effect, 100 complete control), 13 to 15 days

For `Cc1ccc(-n2c(-c3ccccc3)ncc(C(=O)C3=C(O)CCCC3=O)c2=O)cc1` [Compound 8], which “Morningglory plant response rating” value [1, 13] is on record?
Its value is 90.

And the “Plant response rating, Morningglory” value [1, 14]?
Its value is 100.

What about the “Plant response rating, Morningglory” value [1, 15] of the same compound?
Its value is 0.

What about the “Plant response rating, Morningglory” value [1, 16] of the same compound?
The value was 70.

And the “Crabgrass, Large plant response rating” value [2, 13]?
Its value is 80.

What about the “Plant response rating, Crabgrass, Large” value [2, 14] of the same compound?
Its value is 90.

What about the “Plant response rating, Crabgrass, Large” value [2, 15] of the same compound?
Its value is 40.

And the “Plant response rating, Crabgrass, Large” value [2, 16]?
The value was 100.

And the “Velvetleaf plant response rating” value [3, 13]?
The value was 100.

What about the “Plant response rating, Velvetleaf” value [3, 14] of the same compound?
The value was 100.

And the “Plant response rating, Velvetleaf” value [3, 15]?
Its value is 50.

What about the “Plant response rating, Velvetleaf” value [3, 16] of the same compound?
The value was 90.

And the “Barnyardgrass plant response rating” value [4, 13]?
The value was 90.

And the “Plant response rating, Barnyardgrass” value [4, 14]?
Its value is 100.

What about the “Plant response rating, Barnyardgrass” value [4, 15] of the same compound?
The value was 10.

And the “Plant response rating, Barnyardgrass” value [4, 16]?
Its value is 80.

And the “Pigweed plant response rating” value [5, 13]?
Its value is 100.

And the “Plant response rating, Pigweed” value [5, 14]?
Its value is 100.

And the “Plant response rating, Pigweed” value [5, 15]?
The value was 90.

What about the “Plant response rating, Pigweed” value [5, 16] of the same compound?
Its value is 90.

What about the “Foxtail, Giant plant response rating” value [6, 13] of the same compound?
The value was 90.

And the “Plant response rating, Foxtail, Giant” value [6, 14]?
Its value is 100.

And the “Plant response rating, Foxtail, Giant” value [6, 15]?
The value was 40.

And the “Plant response rating, Foxtail, Giant” value [6, 16]?
Its value is 90.

And the “Corn plant response rating” value [7, 13]?
The value was 10.

And the “Plant response rating, Corn” value [7, 14]?
The value was 50.

What about the “Plant response rating, Corn” value [7, 15] of the same compound?
Its value is 0.

What about the “Plant response rating, Corn” value [7, 16] of the same compound?
The value was 20.

What about the “Wheat plant response rating” value [8, 13] of the same compound?
Its value is 10.

What about the “Plant response rating, Wheat” value [8, 14] of the same compound?
Its value is 50.

And the “Plant response rating, Wheat” value [8, 15]?
The value was 0.

And the “Plant response rating, Wheat” value [8, 16]?
Its value is 20.

And the “Plant response rating, Windgrass” value [9, 17]?
Its value is 5.

What about the “Plant response rating, Windgrass” value [9, 18] of the same compound?
The value was 20.

What about the “Plant response rating, Windgrass” value [9, 19] of the same compound?
Its value is 30.

What about the “Windgrass plant response rating” value [9] of the same compound?
Its value is 40.

What about the “Plant response rating, Barley” value [10, 17] of the same compound?
The value was 0.

What about the “Plant response rating, Barley” value [10, 18] of the same compound?
Its value is 0.

And the “Plant response rating, Barley” value [10, 20]?
Its value is 5.

What about the “Barley plant response rating” value [10] of the same compound?
Its value is 20.

And the “Plant response rating, Canarygrass” value [11, 17]?
Its value is 20.

And the “Plant response rating, Canarygrass” value [11, 18]?
The value was 50.

What about the “Plant response rating, Canarygrass” value [11, 19] of the same compound?
The value was 70.

And the “Canarygrass plant response rating” value [11]?
Its value is 85.

What about the “Plant response rating, Chickweed” value [12, 17] of the same compound?
Its value is 98.

And the “Plant response rating, Chickweed” value [12, 18]?
The value was 100.

What about the “Plant response rating, Chickweed” value [12, 19] of the same compound?
The value was 100.

And the “Chickweed plant response rating” value [12]?
Its value is 100.

`Cc1ccccc1-n1c(-c2ccccc2)ncc(C(=O)C2=C(O)CCCC2=O)c1=O` [Compound 12] was tested. Which “Morningglory plant response rating” value [1, 13] did it give?
The value was 100.

And the “Plant response rating, Morningglory” value [1, 14]?
The value was 100.

What about the “Plant response rating, Morningglory” value [1, 15] of the same compound?
Its value is 30.

And the “Plant response rating, Morningglory” value [1, 16]?
Its value is 90.

And the “Crabgrass, Large plant response rating” value [2, 13]?
The value was 90.

And the “Plant response rating, Crabgrass, Large” value [2, 14]?
Its value is 100.

What about the “Plant response rating, Crabgrass, Large” value [2, 15] of the same compound?
The value was 50.

And the “Plant response rating, Crabgrass, Large” value [2, 16]?
The value was 90.

And the “Velvetleaf plant response rating” value [3, 13]?
Its value is 100.

And the “Plant response rating, Velvetleaf” value [3, 14]?
Its value is 100.

And the “Plant response rating, Velvetleaf” value [3, 15]?
The value was 70.

What about the “Plant response rating, Velvetleaf” value [3, 16] of the same compound?
Its value is 90.

What about the “Barnyardgrass plant response rating” value [4, 13] of the same compound?
Its value is 90.

And the “Plant response rating, Barnyardgrass” value [4, 14]?
The value was 90.

What about the “Plant response rating, Barnyardgrass” value [4, 15] of the same compound?
The value was 10.

What about the “Plant response rating, Barnyardgrass” value [4, 16] of the same compound?
Its value is 70.

And the “Pigweed plant response rating” value [5, 13]?
Its value is 100.

And the “Plant response rating, Pigweed” value [5, 14]?
The value was 100.

What about the “Plant response rating, Pigweed” value [5, 15] of the same compound?
The value was 80.

What about the “Plant response rating, Pigweed” value [5, 16] of the same compound?
The value was 100.

And the “Foxtail, Giant plant response rating” value [6, 13]?
Its value is 90.

And the “Plant response rating, Foxtail, Giant” value [6, 14]?
Its value is 90.

What about the “Plant response rating, Foxtail, Giant” value [6, 15] of the same compound?
Its value is 20.

And the “Plant response rating, Foxtail, Giant” value [6, 16]?
The value was 90.

And the “Corn plant response rating” value [7, 13]?
The value was 40.

And the “Plant response rating, Corn” value [7, 14]?
The value was 80.

And the “Plant response rating, Corn” value [7, 15]?
Its value is 0.

What about the “Plant response rating, Corn” value [7, 16] of the same compound?
The value was 0.

What about the “Wheat plant response rating” value [8, 13] of the same compound?
The value was 0.

What about the “Plant response rating, Wheat” value [8, 14] of the same compound?
Its value is 0.

And the “Plant response rating, Wheat” value [8, 15]?
Its value is 0.

And the “Plant response rating, Wheat” value [8, 16]?
The value was 0.

And the “Plant response rating, Windgrass” value [9, 17]?
The value was 10.

What about the “Plant response rating, Windgrass” value [9, 18] of the same compound?
Its value is 40.

And the “Plant response rating, Windgrass” value [9, 19]?
The value was 45.

And the “Windgrass plant response rating” value [9]?
The value was 50.

What about the “Plant response rating, Barley” value [10, 17] of the same compound?
The value was 0.

What about the “Plant response rating, Barley” value [10, 18] of the same compound?
The value was 0.

And the “Plant response rating, Barley” value [10, 20]?
The value was 0.

What about the “Barley plant response rating” value [10] of the same compound?
The value was 0.

What about the “Plant response rating, Canarygrass” value [11, 17] of the same compound?
Its value is 0.

What about the “Plant response rating, Canarygrass” value [11, 18] of the same compound?
The value was 5.

And the “Plant response rating, Canarygrass” value [11, 19]?
The value was 5.

What about the “Canarygrass plant response rating” value [11] of the same compound?
Its value is 40.

What about the “Plant response rating, Chickweed” value [12, 17] of the same compound?
The value was 100.

What about the “Plant response rating, Chickweed” value [12, 18] of the same compound?
The value was 100.

What about the “Plant response rating, Chickweed” value [12, 19] of the same compound?
Its value is 100.

What about the “Chickweed plant response rating” value [12] of the same compound?
Its value is 100.
